The values that follow come from publication PMC13327620, “A Deep‐Red‐Absorbing Osmium(II) Complex as a Photosensitizer for Photodynamic Therapy Inducing Immunogenic Cell Death” (Angewandte Chemie (International Ed. in English), 2026).

Data set [1] deals with human glioblastoma cells (U-87 MG). Briefly: Resazurin cell viability assay, (photo)cytotoxicity, normoxia. It is filed as cell-based. As to conditions: for IC50: Homo sapiens. Here is the method: (100 U ml−1), streptomycin (100 U ml−1), and 1% L-glutamine. […]
All cells were incubated at 37 °C in a humidified atmosphere with 5 % CO2.
Normoxia. The in vitro viability of cells exposed to the complexes was determined using a resazurin assay. C ells were seeded in 96-well plates at densities of 4,000 cells/well for CT26, MC A205 and U-87 MG cells, and 8,000 cells/well for MRC-5 and NIH/3T3 cells. A fter 24 h of growth at 37 °C wit h 5% CO2, the medium was replaced with fresh medium containing various concentrations of the compounds . Following a 4- h incubation in the dark, the medium was refres hed , and the plates were exposed to irradiation usinga LUM OS -BIO photoreactor (At las Photonics).N on- ir rad iated plates were similarly refr eshed with medium and kept in the dark for the same duration. After a 40- h r ecov ery period, a f reshly pr epar ed resazurin solution (0.2 mg/mL) was added to each well, and the plates were left in the dark for 4 h before analysis on a B i o Te k Cytation 5 Cell Imaging Multimode Reader (Agil ent Technologies). […]

Data set [2] can be described thus: Photostability by UV-vis absorption in PBS with 10% FBS. The format is physicochemical. Particulars: 10% FBS in PBS, 50 μM. The text has this:
Photostability is a crucial parameter for PSs, as it has a significant impact on their phototoxicity. Based on the results of our in vitro phototoxicity studies, and in view of future in vivo experiments, we decided to investigate the stability of Os2 and Ce6 under deep‐red illumination. Therefore, we monitored the UV–vis absorption spectra of Os2 and Ce6 in biological media (10% FBS in PBS, phosphate‐buffered saline) using a 740 nm excitation wavelength for one hour and a 770 nm excitation wavelength for 2 h, with the duration of light exposure kept consistent with in vitro phototoxicity tests. […]
software Fluofit (PicoQuant GmbH, BERLIN, Germany) based on iterative reconvolution using a Levensberg- M arquandt alg oritm, enabling the obtention of multi-exponential profiles (m ainly one or two exponenti als in our cases ).
Compound Os2 and Ce6 were dissolved in biologically relevant media (PBS solution with 10% FBS) at 50 μ M from the stock solution (10 m M in DMSO). The UV -Vi s spectrum of each complex was recorded from 300 nm to 900 nm at 10- or 20- minutes intervals using BioTek Cytation 5 Cell Imaging Multimode Reader (Agilent […]
The hydrodynamic diameter was determined using dynamic light scattering (DLS, Malvern ZetaSizer Nano ZS) at 25 ℃ . PBS with 10% FBS solutions were filtered through a 0.22 µM membrane before use. […]

Data set [3] deals with IFN‐γ and IL‐17A. Kind of data set: Cytokine assay (ELISA) in serum after vaccination. As to conditions: day 7, compared to Control and Cisplatin groups. The format is in vivo, BALB/c mice. The text has this:
Encouraged by the excellent performance of Os2 in inducing ICD both in vitro and in vivo, we decided to further evaluate the antitumor immune response following vaccination. A key feature of ICD is its ability to initiate antigen‐specific adaptive immune responses. To assess this, we measured the immune cell response in the spleens and the cytokine levels in the serum of mice 7 days after vaccination (Figures 6A and S28).
PerCp Cy5.5 (Biolegend, Catalog no.100217, cl one 17A2), anti -CD4- Kiravia 520 (Biolegend, Catalog no. 100477, clone GK1.5), anti-CD8a-BUV496 (Ther mo F i s h er […]
transcription factor staini ng, the cells were treat ed with True- Nuclear™ Transcription Factor Buffer Set (Biolegend, Catalog no. 424401) after surface staining an d re-stained with fluorescen ce-labeled anti-IFNγ-PE (Biolegend, Catalog no. 505807, clone XMG1.2), anti-FoxP3- BV421 (Biolegend, Catalog no.126419, clone MF-14) and Zombie NIR™Fixable Viability Kit( Biolegend,Catalog no.423105).
Serum samples were obt ained from the mice on day 7 after treatment. Cytokine was detected using ELISA kits according to the manufacturer ’s instructions: IFN-γ (Biolegend, Catalog no. 430807) and IL -17A ( Bi olegend, Catalog no.432507).
All the analysis data are given as mean ± SEM. […]

Read-outs that look alike come from different tables or passages of the source.

With `C=Cc1c(C)c2cc3nc(c(CC(=O)O)c4[nH]c(cc5nc(cc1[nH]2)C(C)=C5CC)c(C)c4C(=O)O)[C@@H](CCC(=O)O)[C@@H]3C` [Ce6, chlorin e6], the PI in data set [1] (740 nm) stood at 28; in data set [1] (770 nm), 8. The IC50 in data set [1] (dark, read-out: IC50 Dark) was determined as 116 ± 6.99 µM; in data set [1] (light or radiation study, 1 h, 740 nm, 1.12 mW/cm2, 60 min, 12.60 J/cm2, read-out: IC50 740 nm) it was 4.15 ± 0.06 µM; in data set [1] (light or radiation study, 2 h, 770 nm, 0.68 mW/cm2, 120 min, 15.30 J/cm2, read-out: IC50 770 nm), 14 ± 3.14 µM. Moreover, the “Photostability (UV-vis absorption spectrum)” value in data set [2] (740 nm excitation, 1 h, 12.60 J/cm2) was “decreased by nearly half after 50 min”; in data set [2] (770 nm excitation, 2 h, 15.30 J/cm2), “did not change”. In addition, the “IFN‐γ level in serum” value in data set [3] is “significant increase”. The “IL‐17A level in serum” value in data set [3] is “significant increase”.
